Some test systems named below: SN12C; A549; SF-295; HOP-62; Malme-3M; OVCAR-3; SR; HL-60; ACHN; K562; UACC-257; HCT-15; SNB-19; OVCAR-5; RXF 393; NCI-H460; Hs-578T; MDA-MB-231; CCRF-CEM; UACC-62.
Experiment in all cases: inhibition of tumour cell growth, NCI panel, 48 h

The text below walks through data of ChEMBL document CHEMBL1201862, “PubChem BioAssay data set” (2004).

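Results reflect a 48-hour exposure of cells in 96-well plates to compound at five concentrations. GI50 is the concentration that inhibits growth by half.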 The source made the active and inactive calls. Cut-off read from the data, not from the text of the source: active = GI50 up to about 1.1 µM and inactive = higher.

In the case of `Cc1ccc([N+](=O)[O-])c2c(NCCCN(C)C)ccnc12`, the GI50 in the assay on SN12C was 44.3 µM (inactive); in the assay on A549, > 92 µM (inactive); in the assay with SF-295, > 100 µM (inactive); in the assay with HOP-62, > 90.4 µM (inactive); in the assay on Malme-3M it was 17 µM (inactive); with OVCAR-3, 33.1 µM (inactive). Moreover, the GI50 in the assay on SR is 66.4 µM (inactive); in the assay with HL-60, 47.1 µM (inactive); in the assay with ACHN, 57 µM (inactive); in the assay with K562 it was 70.8 µM (inactive); in the assay with UACC-257 it was 39.2 µM (inactive); in the assay with HCT-15, 35 µM. In addition, the GI50 with SNB-19 was > 100 µM (inactive); with OVCAR-5, > 100 µM (inactive); in the assay on RXF 393, > 100 µM (inactive); in the assay on NCI-H460 it was 23.2 µM (inactive); in the assay with Hs-578T, > 100 µM (inactive); with MDA-MB-231, > 100 µM (inactive). The GI50 in the assay with CCRF-CEM was > 100 µM (inactive).
Turning to `N#CC(NNC(=O)c1c(Cl)c(Cl)c(Cl)c(Cl)c1-c1nc2cc(C(=O)c3ccccc3)ccc2[nH]1)c1ccccc1` (stereo not given), the GI50 in the assay on SN12C is 6.61 µM (inactive); in the assay on A549, 6.76 µM (inactive); in the assay with SF-295, 3.68 µM (inactive); in the assay on HOP-62, 7.82 µM (inactive); in the assay with Malme-3M, 8.57 µM (inactive); in the assay on OVCAR-3 it was 4.57 µM (inactive). Further, the GI50 in the assay on SR is 2.84 µM (inactive); in the assay with HL-60, 4.69 µM (inactive); in the assay on ACHN, 10.6 µM (inactive); with K562, 3.24 µM (inactive); in the assay with UACC-257, 9.98 µM (inactive); in the assay on HCT-15, 4.74 µM. Further, the GI50 with SNB-19 was 12.4 µM (inactive); in the assay with OVCAR-5 it was 26.5 µM (inactive); in the assay on RXF 393, 3.18 µM (inactive); with Hs-578T it was 6.78 µM (inactive); with MDA-MB-231, 9.2 µM (inactive); with CCRF-CEM, 4.02 µM (inactive).
As to `Cc1c(OCc2cccc3ccccc23)ccc2c(O)cc(=S)oc12`, the GI50 is 48.4 µM (inactive) with SN12C; 55.7 µM (inactive) in the assay with A549; 29.8 µM (inactive) in the assay with SF-295; 37.3 µM (inactive) in the assay on HOP-62; 22.9 µM (inactive) in the assay with OVCAR-3; 28.7 µM (inactive) in the assay on SR. The GI50 in the assay on HL-60 was 19.4 µM (inactive); in the assay on UACC-62, 23.1 µM (inactive); with ACHN, 34.2 µM (inactive); in the assay on K562 it was 36.1 µM (inactive); with UACC-257 it was 46.3 µM (inactive); in the assay on HCT-15 it was 35.3 µM. In addition, the GI50 in the assay with SNB-19 was 37.6 µM (inactive); in the assay on OVCAR-5, 54.1 µM (inactive); in the assay with RXF 393, 57.9 µM (inactive); in the assay with NCI-H460, 31.8 µM (inactive); in the assay with Hs-578T, 34.8 µM (inactive); with MDA-MB-231 it was 46.5 µM (inactive). The GI50 in the assay with CCRF-CEM was 22.1 µM (inactive).
Turning to `Cc1nc2cccc(F)c2c(=O)n1-c1nnc(C(F)(F)F)s1`, the GI50 in the assay on SN12C, with A549, with SF-295, in the assay on HOP-62, in the assay with OVCAR-3 and in the assay with SR was > 10 µM (inactive) each time. Further, the GI50 in the assay on HL-60 is > 10 µM (inactive); in the assay with UACC-62, > 10 µM (inactive); in the assay on ACHN it was > 10 µM (inactive); in the assay on K562 it was > 10 µM (inactive); with UACC-257, > 10 µM (inactive); in the assay with HCT-15, above 10 µM. Moreover, the GI50 in the assay with SNB-19, in the assay with OVCAR-5, in the assay with RXF 393, with NCI-H460, in the assay on Hs-578T and in the assay on MDA-MB-231 was > 10 µM (inactive) in each case. Further, the GI50 with CCRF-CEM is > 10 µM (inactive).
With `Cc1ccc(S(=O)(=O)N/N=C2/CC[C@H](C(C)(C)C)C[C@@H]2C)cc1`, the GI50 in the assay with SN12C was 16.3 µM (inactive); in the assay on A549, 16.4 µM (inactive); in the assay on SF-295, 15.8 µM (inactive); in the assay with HOP-62, 13.8 µM (inactive); in the assay with Malme-3M it was 16.1 µM (inactive); with OVCAR-3, 12.6 µM (inactive). Further, the GI50 with SR was 31.8 µM (inactive); in the assay with HL-60 it was 35.6 µM (inactive); in the assay on UACC-62 it was 15.7 µM (inactive); with ACHN it was 16.6 µM (inactive); in the assay with K562, 16.6 µM (inactive); in the assay with UACC-257, 13.9 µM (inactive). Also, the GI50 is 16.6 µM in the assay on HCT-15; 18.5 µM (inactive) in the assay on SNB-19; 18.2 µM (inactive) in the assay on OVCAR-5; 17 µM (inactive) in the assay on NCI-H460; 18.2 µM (inactive) with Hs-578T; 21.2 µM (inactive) in the assay on MDA-MB-231. For the same compound, in the assay with CCRF-CEM, the GI50 was 15.8 µM (inactive).
With `CC(O)(CCCCCl)c1nc2ccccc2s1` (stereo not given), the GI50 in the assay with SN12C was > 100 µM (inactive); in the assay with A549 it was > 100 µM (inactive); with SF-295, > 100 µM (inactive); in the assay with HOP-62, > 100 µM (inactive); in the assay on OVCAR-3, > 100 µM (inactive); in the assay on SR, 53 µM (inactive). Besides, the GI50 is 60.4 µM (inactive) in the assay on HL-60; > 100 µM (inactive) in the assay on UACC-62; > 100 µM (inactive) with ACHN; 89.9 µM (inactive) in the assay with K562; > 100 µM (inactive) in the assay with UACC-257; above 100 µM in the assay with HCT-15. Also, the GI50 was > 100 µM (inactive) in the assay with SNB-19; > 100 µM (inactive) with OVCAR-5; > 100 µM (inactive) in the assay with Hs-578T; 96.4 µM (inactive) in the assay on MDA-MB-231; > 100 µM (inactive) in the assay with CCRF-CEM.
Turning to `CCN(CC)CCNC(=O)c1cc2cc(NC(=O)c3cc4cc(NC(=O)c5cc6cc([N+](=O)[O-])ccc6[nH]5)ccc4[nH]3)ccc2[nH]1`, the GI50 in the assay with SN12C, in the assay with A549, in the assay with SF-295, with HOP-62, in the assay with Malme-3M and with OVCAR-3 was > 100 µM (inactive) in each case. Also, the GI50 with SR was < 0.01 µM (active); with UACC-62, > 100 µM (inactive); in the assay on ACHN, > 100 µM (inactive); in the assay with K562 it was > 100 µM (inactive); in the assay on UACC-257 it was > 100 µM (inactive); in the assay with HCT-15, above 100 µM. The GI50 with SNB-19, in the assay with OVCAR-5, in the assay on RXF 393, in the assay with NCI-H460, with Hs-578T and in the assay on MDA-MB-231 was > 100 µM (inactive) in each case. Further, the GI50 with CCRF-CEM is 10.6 µM (inactive).
In the case of `Cc1c(Cl)ccc2c1NC(=O)C2(O)CC(=O)c1ccc(Cl)cc1Cl` (stereo not given), the GI50 in the assay on SN12C is > 50 µM (inactive); in the assay on A549 it was > 50 µM (inactive); in the assay on SF-295, > 50 µM (inactive); in the assay on HOP-62 it was 19.2 µM (inactive); in the assay with Malme-3M, > 47.9 µM (inactive); in the assay on OVCAR-3, > 46.7 µM (inactive). In addition, the GI50 is 0.264 µM (active) with SR; > 50 µM (inactive) with UACC-62; 36.7 µM (inactive) in the assay with ACHN; 19.1 µM (inactive) in the assay with K562; > 50 µM (inactive) with UACC-257; above 50 µM in the assay on HCT-15. The GI50 in the assay with SNB-19 was > 50 µM (inactive); with OVCAR-5, > 50 µM (inactive); in the assay on RXF 393 it was 20.1 µM (inactive); in the assay with NCI-H460 it was > 50 µM (inactive); in the assay with Hs-578T it was 12.9 µM (inactive); in the assay with MDA-MB-231, 30.5 µM (inactive). Further, the GI50 in the assay on CCRF-CEM was 10.3 µM (inactive).
As to `Nc1nc(-c2ccccc2/N=N/N2CCCC2)nc2ccccc12`, the GI50 with SN12C is 1.59 µM (inactive); in the assay with A549 it was 2.62 µM (inactive); in the assay on SF-295 it was 2.32 µM (inactive); with HOP-62, 1.73 µM (inactive); with Malme-3M, 3.28 µM (inactive); in the assay with OVCAR-3, 1.85 µM (inactive). The GI50 in the assay on SR is 0.413 µM (active); in the assay with UACC-62, 1.77 µM (inactive); in the assay with ACHN it was 2.52 µM (inactive); in the assay on K562, 3.05 µM (inactive); in the assay with UACC-257, 3.51 µM (inactive); in the assay on HCT-15 it was 2.7 µM. Further, the GI50 in the assay on SNB-19 is 3.69 µM (inactive); with OVCAR-5 it was 1.86 µM (inactive); with RXF 393, 5.73 µM (inactive); in the assay on NCI-H460, 2.92 µM (inactive); in the assay on Hs-578T, 3.39 µM (inactive); in the assay on MDA-MB-231, 1.58 µM (inactive). For the same compound, in the assay with CCRF-CEM, the GI50 was 3.07 µM (inactive).
For the compound `C[C@@H]1CC[C@H]2[C@H](C)C(OC3O[C@@H]4O[C@@]5(C)CC[C@H]6[C@H](C)CC[C@@H]([C@@H]3C)[C@@]46O5)O[C@@H]3O[C@@]4(C)CC[C@@H]1[C@]32O4` (stereo not given in full), the GI50 in the assay on SN12C, in the assay on A549, with SF-295, with HOP-62, with Malme-3M and with OVCAR-3 was > 100 µM (inactive) throughout. In addition, the GI50 with SR, with HL-60, in the assay on UACC-62, in the assay on ACHN, in the assay with K562 and in the assay with UACC-257 was > 100 µM (inactive) each time. For the same compound, the GI50 is above 100 µM in the assay on HCT-15; > 100 µM (inactive) with SNB-19; > 100 µM (inactive) in the assay on OVCAR-5; > 100 µM (inactive) in the assay on NCI-H460; > 100 µM (inactive) with Hs-578T; > 100 µM (inactive) in the assay on MDA-MB-231. Further, in the assay on CCRF-CEM, the GI50 is > 100 µM (inactive).
With `O=c1c(C(c2cccnc2)c2c(O)oc3cc(O)ccc3c2=O)c(O)oc2cc(O)ccc12`, the GI50 in the assay with SN12C, in the assay on A549, in the assay on SF-295, in the assay on HOP-62, in the assay with OVCAR-3 and in the assay with SR was > 100 µM (inactive) each time. Moreover, the GI50 with HL-60 is > 100 µM (inactive); in the assay on UACC-62 it was > 100 µM (inactive); with ACHN it was > 100 µM (inactive); with K562 it was > 100 µM (inactive); with UACC-257 it was > 100 µM (inactive); in the assay on HCT-15, above 100 µM. Besides, the GI50 with SNB-19, with OVCAR-5, in the assay with RXF 393, in the assay on NCI-H460, with Hs-578T and in the assay with MDA-MB-231 was > 100 µM (inactive) throughout.
